Experimental findings from patent US20240100088A1, “NOVEL FORMULATION FOR TREATING COPPER METABOLISM-ASSOCIATED DISEASES OR DISORDERS” (Alexion Pharmaceuticals, Inc., priority 2021, published 2024) are described below.

Entries after “also recorded” stand apart in the source; their conditions may differ.

Data set [1] in a line: Phase 1 study, Dose-Proportionality Extension Period: PK of plasma total Mo and PUF Mo (incl. dose-normalized, power model). Type of data set: in vivo, healthy adult participants. The following applies: any of the treatments evaluated. The method, then:
(§1) The safety and tolerability of the 2 formulations of BC-TTM in healthy participants was also assessed. BC-TTM pharmacokinetics (PK) in plasma as measured via total molybdenum (Mo) and plasma ultrafiltrate (PUF) Mo was determined.
The Dose-Proportionality Extension Period was a re-randomized, open-label, parallel group design to assess the dose-proportionality between 2.5 mg (2×1.25 mg), 5 mg (4×1.25 mg), 10 mg (8×1.25 mg), and 30 mg (24×1.25 mg) EC mini-tablet doses. The 15 mg (12×1.25 mg) dose was not repeated during the Dose-Proportionality Extension Period.
The Dose-Proportionality Extension Period was conducted following completion of the Two-way Crossover Period of the study and after an at least 14-day washout period. Participants were re-randomized as follows: • Treatment C (N=10-12): BC-TTM 2.5 mg (2×1.25 mg EC mini-tablets) • Treatment D (N=10-12): BC-TTM 5 mg (4×1.25 mg EC mini-tablets) • Treatment E (N=10-12): BC-TTM 10 mg (8×1.25 mg EC mini-tablets) • Treatment F (N=10-12): BC-TTM 30 mg (24×1.25 ma EC mini-tablets)
The dose-proportionality evaluation included data obtained from Treatment A of the Two-way Crossover Period (12×1.25 mg EC mini-tablets) to represent a dose of 15 mg,
Re-randomized treatment assignment were based on Baseline body mass index (BMI). Two strata for Baseline BM (<25, 25 to <32 kg/m^2) were used. […]

Data set [2] can be described thus: Phase 1 study: safety and tolerability (TEAEs, TESAEs, clinical laboratory). Type of data set: in vivo, healthy adult participants. The method, then:
as §1

For the compound `C[N+](C)(C)CCO.C[N+](C)(C)CCO.[SH-].[SH-].[S]=[Mo]=[S]` [BC-TTM, Bis-choline tetrathiomolybdate], the “effect of body weight or BMI on BC-TTM PK” value in data set [1] is reported as “apparently not affected; also recorded: There was no apparent effect of body”. For the same compound, in data set [2] (all treatments), the “deaths or TESAEs” value is “No deaths or TESAEs were reported”. The “severity of TEAEs” value in data set [2] (all treatments, except 2 Grade 4 events after Treatment B) is “All TEAEs were Grade 1 or 2 in severity,”. In data set [2] (single oral dose 2.5 mg to 30 mg as EC mini-tablets and as a 15 mg EC tablet), the “safety profile and tolerability” value is “acceptable safety profile and was generally well-tolerated”.
